Experimental data reported in patent US11814445B2, “Cyclic polypeptides for PCSK9 inhibition” (Ra Pharmaceuticals, Inc., priority 2018, dated 2023).
Numbered stars: 1 amine (or outer) side, 2 acyl side, 3 side chain; on linkers, the order of the positions; unused ones are H or OH. Bridge positions count the residues as written; N and C are the ends. Square brackets hold non-standard residues; d marks the D form. Peptide text beside a SMILES is read from it. Phe(4-CF3) = N[C@@H](Cc1ccc(C(F)(F)F)cc1)C(=O)O; Trp(5-F) = N[C@@H](Cc1c[nH]c2ccc(F)cc12)C(=O)O; X1 = O=C(CCSCc1cccc(CSCCN[*:1])c1)[*:2]; Phe(4-F) = N[C@@H](Cc1ccc(F)cc1)C(=O)O; Pro(4,4-F2) = O=C(O)[C@@H]1CC(F)(F)CN1; 2Nal = N[C@@H](Cc1ccc2ccccc2c1)C(=O)O; mXylylene = c1cc(C[*:1])cc(C[*:2])c1; NMeF = CN[C@@H](Cc1ccccc1)C(=O)O; Mpa = O=C(O)CCS

What was measured:
PCSK9 = biological target: T1, PCSK9 (Homo sapiens, UniProt Q8NBP7); experiment: PCSK9 Alexa FRET Standard assay (displacement of AlexaFluor647 tagged cyclic peptide Reagent A); assay type: binding; conditions: 0.5 nM PCSK9, 20 nM AF cyclic peptide Reagent A
T1 construct: biotin (biotinylated)
T1 sequence (Q8NBP7 153-692): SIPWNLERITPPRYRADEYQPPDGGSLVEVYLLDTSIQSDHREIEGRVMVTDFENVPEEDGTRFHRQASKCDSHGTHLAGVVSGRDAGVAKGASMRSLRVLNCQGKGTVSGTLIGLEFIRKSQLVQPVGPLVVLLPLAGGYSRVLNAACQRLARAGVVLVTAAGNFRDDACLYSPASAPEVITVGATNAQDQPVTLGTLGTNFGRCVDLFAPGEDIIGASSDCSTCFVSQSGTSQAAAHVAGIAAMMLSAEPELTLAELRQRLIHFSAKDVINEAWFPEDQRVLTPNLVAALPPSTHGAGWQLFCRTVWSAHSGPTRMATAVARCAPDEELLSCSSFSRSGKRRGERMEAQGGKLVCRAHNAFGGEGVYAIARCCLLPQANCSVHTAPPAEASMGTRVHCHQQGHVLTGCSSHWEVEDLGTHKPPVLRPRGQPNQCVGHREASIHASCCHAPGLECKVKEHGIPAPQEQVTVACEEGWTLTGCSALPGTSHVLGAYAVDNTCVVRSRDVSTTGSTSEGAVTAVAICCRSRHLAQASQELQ
Description: A solution containing 1 nM biotinylated PCSK9+2.5 nM Lance Streptavidin Europium (Strep-Eu) was made in 50 mM HEPES pH 7.4, 0.15 M NaCl, 5 mM CaCl2), 0.01% BSA, and 0.01% Surfactant P20. A separate solution containing 40 nM of the AlexaFluor tagged cyclic peptide was made in the same buffer system. An Echo was used to transfer 0.750 ul of compound to an assay plate followed by the addition of 15 ul of PCSK9+Stept-Eu and 15 ul of AF peptide. The final assay volume was 30.750 ul containing 0.5 nM PCSK9, 1.25 nM Strep-Eu, and 20 nM AF cyclic peptide. The reaction was incubated at room temperature for at least two hours prior to fluorescence measurements using an Envision Multilabel Reader. IC50 values were determined by fitting data to a sigmoidal dose-response curve using nonlinear regression. Ki was then calculated from the IC50 and the KD of AF cyclic peptide. Counts (B-counts) of the europium-labeled PCSK9 were followed to observe if compounds were […]. A fall off of the B-counts likely indicated a false positive of inhibition. Data from this procedure was reported as “A=‘numerical value’ (nanomolar)”

[1] = biological target: human PCSK9 / human LDLR EGFa domain (Homo sapiens, UniProt Q8NBP7); experiment: TR-FRET assay of inhibition of the PCSK9-LDLR protein-protein interaction; assay type: binding; conditions: 20 nM human PCSK9, 20 nM human LDLR EGFa domain, 2 hours room temperature
human PCSK9 / human LDLR EGFa domain, sequence (Q8NBP7 153-692): as above
Procedure, shortened: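 Biotinylated PCSK9 (20 nM) and His-tagged LDLR EGFa domain (20 nM) were incubated 2 h at room temperature with 5 nM Ulight-streptavidin and 5 nM Eu-anti-His in HEPES/NaCl/CaCl2 buffer with 0.01% BSA and 0.01% P20. TR-FRET was read; half-maximal inhibitory concentrations came from 4-parameter dose-response fits.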

| Compound | IC50 (PCSK9) [nM] | IC50 [1] [nM] |
| --- | --- | --- |
| C[C@@H]1NC(=O)CCSCc2cccc(c2)CSC[C@@H](C(N)=O)NC(=O)[C@@H]2CCCN2C(=O)[C@H](Cc2ccc(C(F)(F)F)cc2)NC(=O)[C@H](C)NC(=O)[C@@H]2CCCN2C(=O)[C@H](Cc2c[nH]c3ccc(F)cc23)NC(=O)[C@H](Cc2c[nH]c3ccc(F)cc23)NC(=O)[C@@H](C)NC1=O [Compound 084] ([Mpa]A[dA][Trp(5-F)][Trp(5-F)]PA[Phe(4-CF3)]PC-NH2; linker 1-10 via mXylylene) | 1 to 100 | 100 to 1000 |
| COc1ccc(C[C@@H]2NC(=O)[C@H](C)NC(=O)[C@@H]3CCC(=O)NCc4cccc(c4)C[C@H](NC(=O)CNC(C)=O)C(=O)N[C@@H](Cc4cn(c5ccc(F)cc45)Cc4cn(nn4)CC[C@@H](C(N)=O)NC(=O)[C@]4(C)CCCN4C2=O)C(=O)N3)cc1 [Compound 127] | 1 to 100 | 100 to 1000 |
| COc1ccc(C[C@@H]2NC(=O)[C@H]([C@@H](C)O)NC(=O)CN3CCCCOc4cccc(c4)C[C@H](NC(=O)[C@@H](C)NC(=O)[C@H](C)NC(=O)CCSCc4cccc(c4)CSCCNC(=O)[C@]4(C)CCCN4C2=O)C(=O)N[C@H](Cc2c[nH]c4ccc(F)cc24)C3=O)cc1 [Compound 126] | 1 to 100 | 1 to 100 |
| C[C@@H]1NC(=O)CCSCc2cccc(c2)CSCCNC(=O)[C@@H]2CCCN2C(=O)[C@H](Cc2ccccc2)N(C)C(=O)[C@H](C)NC(=O)[C@@H]2CCCN2C(=O)[C@H](Cc2c[nH]c3ccc(F)cc23)NC(=O)[C@H](Cc2c[nH]c3ccc(F)cc23)NC(=O)[C@@H](C)NC1=O [Compound 063] (cyclo(A[NMeF]P[X1]A[dA][Trp(5-F)][Trp(5-F)]P)) | 1 to 100 | 1 to 100 |
| COc1ccc(C[C@@H]2NC(=O)[C@H]([C@@H](C)O)NC(=O)[C@@H]3CCCN3C(=O)[C@H]3Cc4cn(c5ccc(F)cc45)Cc4cn(nn4)-c4cc(cc(c4)CSCCC(=O)N[C@@H](C)C(=O)N[C@H](C)C(=O)N[C@@H](Cc4c[nH]c5ccc(F)cc45)C(=O)N3)CSCCNC(=O)[C@]3(C)CCCN3C2=O)cc1 [Compound 129] | 1000 to 12100 | 1000 to 12100 |

The next lines start with the values.

| IC50 (PCSK9) [nM] | IC50 [1] [nM] | Compound |
| --- | --- | --- |
| 100 to 1000 | 100 to 1000 | C[C@@H]1NC(=O)[C@@H]2CC(F)(F)CN2C(=O)[C@H](Cc2c[nH]c3ccc(F)cc23)NC(=O)[C@H](Cc2c[nH]c3ccc(F)cc23)NC(=O)[C@@H](C)NC(=O)[C@H](CCCCN)NC(=O)CCSCc2cccc(c2)CSC[C@@H](C(N)=O)NC(=O)[C@@H]2CCCN2C(=O)[C@H](Cc2ccc(O)cc2)NC1=O [Compound 036] ([Mpa]K[dA][Trp(5-F)][Trp(5-F)][Pro(4,4-F2)]AYPC-NH2; linker 1-10 via mXylylene) |
| 1 to 100 | 1 to 100 | C[C@@H]1NC(=O)[C@@H]2CCCN2C(=O)[C@H](Cc2ccc3ccccc3c2)NC(=O)[C@H](Cc2c[nH]c3ccc(F)cc23)NC(=O)CNC(=O)[C@H](CCCCN)NC(=O)CCSCc2cccc(c2)CSC[C@@H](C(N)=O)NC(=O)[C@@H]2CCCN2C(=O)[C@H](Cc2ccc(O)cc2)NC1=O [Compound 011] ([Mpa]KG[Trp(5-F)][2Nal]PAYPC-NH2; linker 1-10 via mXylylene) |
| 100 to 1000 | 100 to 1000 | C[C@@H]1NC(=O)[C@@H]2CCCN2C(=O)[C@H](Cc2ccc(F)cc2)NC(=O)[C@H](Cc2c[nH]c3ccc(F)cc23)NC(=O)CNC(=O)[C@H](CCCCN)NC(=O)CCSCc2cccc(c2)CSC[C@@H](C(N)=O)NC(=O)[C@@H]2CCCN2C(=O)[C@H](Cc2ccc(O)cc2)NC1=O [Compound 006] ([Mpa]KG[Trp(5-F)][Phe(4-F)]PAYPC-NH2; linker 1-10 via mXylylene) |
